Experimental data from patent US7763641B2, “Broadspectrum heterocyclic substituted phenyl containing sulfonamide HIV protease inhibitors” (Tibotec Pharmaceuticals Ltd., priority 2001, dated 2010).
Read-outs that look alike come from different tables or passages of the source.

Tests used:
HIV-1 strain LAI = experiment: Cellular anti-HIV assay (MTT), wild type strain; format: cell-based; conditions: for pEC50: MT4 cells, five days, MTT, HIV-1 strain LAI, Tables 1-6; for WT (pEC50 against wild type HIV-LAI strain): Table 8
Protocol: The compounds of the present invention were examined for anti-viral activity in a cellular assay. […] The cellular assay was performed according to the following procedure.

HIV strain A = experiment: Cellular anti-HIV assay, clinically isolated mutant strain A; format: cell-based; conditions: FR=EC50 (mutant strain)/EC50 (HIV-1 strain LAI)
Protocol: (§1) HIV- or mock-infected MT4 cells were incubated for five days in the presence of various concentrations of the inhibitor. […] Cell viability is measured by measuring the concentration of MTT, a yellow, water soluble tetrazolium dye that is converted to a purple, water insoluble formazan in the mitochondria of living cells only. Upon solubilization of the resulting formazan crystals with isopropanol, the absorbance of the solution is monitored at 540 nm. The values correlate directly to the number of living cells remaining in the culture at the completion of the five day incubation. The inhibitory activity of the compound was monitored on the virus-infected cells and was expressed as EC50 and EC90. These values represent the amount of the compound required to protect 50% and 90%, respectively, of the cells from the cytopathogenic effect of the virus. […] The selectivity index (SI) (ratio CC50/EC50) is an indication of the selectivity of the anti-HIV activity of the inhibitor. Wherever results are reported as e.g. pEC50 or pCC50 values, the result is expressed as the negative logarithm of the result expressed as EC50 or CC50 respectively.
(§2) Because of the increasing emergence of drug resistant HIV strains, the present compounds were tested for their potency against clinically isolated HIV strains harboring several mutations (Table 7 and 8).
(§3) As a measure of the broad spectrum activity of the present compounds, the fold resistance (FR), defined as FR=EC50 (mutant strain)/EC50 (HIV-1 strain LAI), was determined.

HIV strain B = experiment: Cellular anti-HIV assay, clinically isolated mutant strain B; format: cell-based; conditions: FR=EC50 (mutant strain)/EC50 (HIV-1 strain LAI)
Protocol: as §1, §2, §3

HIV strain C = experiment: Cellular anti-HIV assay, clinically isolated mutant strain C; format: cell-based; conditions: FR=EC50 (mutant strain)/EC50 (HIV-1 strain LAI)
Protocol: as §1, §2, §3

HIV strain E = experiment: Cellular anti-HIV assay, clinically isolated mutant strain E; format: cell-based; conditions: FR=EC50 (mutant strain)/EC50 (HIV-1 strain LAI)
Protocol: as §1, §2, §3

mock-infected MT4 cells = experiment: Toxicity on mock-infected cells (MTT)
Protocol: as §1, §3

HIV strain D = experiment: Cellular anti-HIV assay, clinically isolated mutant strain D; format: cell-based; conditions: FR=EC50 (mutant strain)/EC50 (HIV-1 strain LAI)
Protocol: as §1, §2, §3

[1] = pCC50 with mock transfected cells

CC(C)CN(CC(O)C(Cc1ccccc1)NC(=O)OC1COC2OCCC12)S(=O)(=O)c1ccc(-c2csc(Nc3ccncc3)n2)cc1 (stereo not drawn) [Compound 5]
pEC50 (HIV-1 strain LAI): 7.6
WT (pEC50 against wild type HIV-LAI strain) (HIV-1 strain LAI): 7.6
A (FR value towards mutant A) (HIV strain A): 22.3
B (FR towards mutant B) (HIV strain B): 6.3
C (FR towards mutant C) (HIV strain C): 3.0
E (FR towards mutant E) (HIV strain E): 13.5
Tox (pCC50) (mock-infected MT4 cells; [1]): 4.95

Cc1sc(N)nc1-c1ccc(S(=O)(=O)N(CC(C)C)CC(O)C(Cc2ccccc2)NC(=O)OC2COC3OCCC23)cc1 (stereo not drawn) [Compound 7]
pEC50 (HIV-1 strain LAI): 7.3

Cc1cccc(C)c1OCC(=O)N[C@@H](Cc1ccccc1)[C@H](O)CN(CC(C)C)S(=O)(=O)c1ccc(-c2csc(N)n2)cc1 [Compound 8]
pEC50 (HIV-1 strain LAI): 5.9

CNc1nc(-c2ccc(S(=O)(=O)N(CC(C)C)C[C@@H](O)[C@H](Cc3ccccc3)NC(=O)COc3c(C)cccc3C)cc2)cs1 [Compound 9]
pEC50 (HIV-1 strain LAI): 5.9

CC(C)CN(C[C@@H](O)[C@H](Cc1ccccc1)NC(=O)OCc1cncs1)S(=O)(=O)c1ccc(-c2csc(Nc3ccncc3)n2)cc1 [Compound 10]
pEC50 (HIV-1 strain LAI): 5.5

Cc1cccc(C)c1OCC(=O)N[C@@H](Cc1ccccc1)[C@H](O)CN(CC(C)C)S(=O)(=O)c1ccc(-c2csc(Nc3ccncc3)n2)cc1 [Compound 11]
pEC50 (HIV-1 strain LAI): 5.4

CC(=O)Nc1nc(-c2ccc(S(=O)(=O)N(CC(C)C)C[C@@H](O)[C@H](Cc3ccccc3)NC(=O)COc3c(C)cccc3C)cc2)cs1 [Compound 12]
pEC50 (HIV-1 strain LAI): 5.3

Cc1cc(Br)cc(C)c1OCC(=O)N[C@@H](Cc1ccccc1)[C@H](O)CN(CC(C)C)S(=O)(=O)c1ccc(-c2csc(N)n2)cc1 [Compound 13]
pEC50 (HIV-1 strain LAI): 5.3

CCNc1nc(-c2ccc(S(=O)(=O)N(CC(C)C)C[C@@H](O)[C@H](Cc3ccccc3)NC(=O)COc3c(C)cccc3C)cc2)cs1 [Compound 15]
pEC50 (HIV-1 strain LAI): 5.3

C=CCNc1nc(-c2ccc(S(=O)(=O)N(CC(C)C)C[C@@H](O)[C@H](Cc3ccccc3)NC(=O)COc3c(C)cccc3C)cc2)cs1 [Compound 16]
pEC50 (HIV-1 strain LAI): 5.1

CC(=O)Nc1nc(-c2ccc(S(=O)(=O)N(CC(C)C)C[C@@H](O)[C@H](Cc3ccccc3)NC(=O)COc3c(C)cc(Br)cc3C)cc2)cs1 [Compound 17]
pEC50 (HIV-1 strain LAI): 4.2

C=CCNc1nc(-c2ccc(S(=O)(=O)N(CC(C)C)C[C@@H](O)[C@H](Cc3ccccc3)NC(=O)COc3c(C)cc(Br)cc3C)cc2)cs1 [Compound 18]
pEC50 (HIV-1 strain LAI): 4.4

CCNc1nc(-c2ccc(S(=O)(=O)N(CC(C)C)C[C@@H](O)[C@H](Cc3ccccc3)NC(=O)COc3c(C)cc(Br)cc3C)cc2)cs1 [Compound 19]
pEC50 (HIV-1 strain LAI): 4.6

Cc1cc(Br)cc(C)c1OCC(=O)N[C@@H](Cc1ccccc1)[C@H](O)CN(CC(C)C)S(=O)(=O)c1ccc(-c2csc(Nc3ccncc3)n2)cc1 [Compound 21]
pEC50 (HIV-1 strain LAI): 4.7

Cc1cccc(C)c1OCC(=O)N[C@@H](Cc1ccccc1)[C@H](O)CN(CC(C)C)S(=O)(=O)c1ccc(-c2cc[nH]n2)cc1 [Compound 24, [(1S,2R)-2-hydroxy-3-[N-(2-methylpropyl)-N-(4-pyrazol-3(5)-ylphenylsulfonyl)-amino]-1-(phenylmethyl)propyl]-(2,6-dimethylphenoxy) acetamide]
pEC50 (HIV-1 strain LAI): 7.1
WT (pEC50 against wild type HIV-LAI strain) (HIV-1 strain LAI): 7.1
A (FR value towards mutant A) (HIV strain A): 1.1
E (FR towards mutant E) (HIV strain E): 3.1
Tox (pCC50) (mock-infected MT4 cells; [1]): 4.2

Cc1cccc(C)c1OCC(=O)N[C@@H](Cc1ccccc1)[C@H](O)CN(CC(C)C)S(=O)(=O)c1ccc(-c2ccnn2C)cc1 [Compound 25]
pEC50 (HIV-1 strain LAI): 5.9

Cc1cccc(C)c1OCC(=O)N[C@@H](Cc1ccccc1)[C@H](O)CN(CC(C)C)S(=O)(=O)c1ccc(-c2ccnn2C(C)(C)C)cc1 [Compound 27]
pEC50 (HIV-1 strain LAI): 5.2

Cc1cccc(C)c1OCC(=O)N[C@@H](Cc1ccccc1)[C@H](O)CN(CC(C)C)S(=O)(=O)c1ccc(-c2ccnn2Cc2ccccc2)cc1 [Compound 28]
pEC50 (HIV-1 strain LAI): 5.2

CCn1nccc1-c1ccc(S(=O)(=O)N(CC(C)C)C[C@@H](O)[C@H](Cc2ccccc2)NC(=O)COc2c(C)cccc2C)cc1 [Compound 29]
pEC50 (HIV-1 strain LAI): 5.2

CCCn1nccc1-c1ccc(S(=O)(=O)N(CC(C)C)C[C@@H](O)[C@H](Cc2ccccc2)NC(=O)COc2c(C)cccc2C)cc1 [Compound 30]
pEC50 (HIV-1 strain LAI): 5.0

Cc1nc(-c2ccc(S(=O)(=O)N(CC(C)C)CC(O)C(Cc3ccccc3)NC(=O)OC3COC4OCCC34)cc2)c[nH]1 (stereo not drawn) [Compound 31]
pEC50 (HIV-1 strain LAI): 7.6

CC(C)CN(CC(O)C(Cc1ccccc1)NC(=O)OC1COC2OCCC12)S(=O)(=O)c1ccc(-c2c[nH]c(N)n2)cc1 (stereo not drawn) [Compound 34]
pEC50 (HIV-1 strain LAI): 6.2

Cc1nc(-c2ccc(S(=O)(=O)N(CC(C)C)C[C@@H](O)[C@H](Cc3ccccc3)NC(=O)OCc3cncs3)cc2)co1 [Compound 36, [(1S,2R)-2-hydroxy-3-[N-[4-(2-methyloxazol-4-yl)phenylsulfonyl]-N-(2-methylpropyl)amino]-1-(phenylmethyl)propyl]carbamic acid, (thiazol-5-ylmethyl)ester]
pEC50 (HIV-1 strain LAI): 6.3

CC(C)CN(CC(O)C(Cc1ccccc1)NC(=O)OC1COC2OCCC12)S(=O)(=O)c1ccc(-c2coc(N)n2)cc1 (stereo not drawn) [Compound 37]
pEC50 (HIV-1 strain LAI): 8.4

CC(C)CN(CC(O)C(Cc1ccccc1)NC(=O)OC1COC2OCCC12)S(=O)(=O)c1ccc(-c2coc(COCc3ccccc3)n2)cc1 (stereo not drawn) [Compound 39]
pEC50 (HIV-1 strain LAI): 8.1
WT (pEC50 against wild type HIV-LAI strain) (HIV-1 strain LAI): 8.1
A (FR value towards mutant A) (HIV strain A): 36
E (FR towards mutant E) (HIV strain E): 52
Tox (pCC50) (mock-infected MT4 cells): <4.0

CC(C)CN(CC(O)C(Cc1ccccc1)NC(=O)OC1COC2OCCC12)S(=O)(=O)c1ccc(-c2coc(CCC(=O)O)n2)cc1 (stereo not drawn) [Compound 41]
pEC50 (HIV-1 strain LAI): 7.2

CC(C)CN(CC(O)C(Cc1ccccc1)NC(=O)OC1COC2OCCC12)S(=O)(=O)c1ccc(-c2coc(-c3ccc([N+](=O)[O-])cc3)n2)cc1 (stereo not drawn) [Compound 43]
pEC50 (HIV-1 strain LAI): 7.9
WT (pEC50 against wild type HIV-LAI strain) (HIV-1 strain LAI): 7.9
A (FR value towards mutant A) (HIV strain A): 54
B (FR towards mutant B) (HIV strain B): 23
C (FR towards mutant C) (HIV strain C): 9.1
D (FR towards mutant D) (HIV strain D): 10.2
E (FR towards mutant E) (HIV strain E): 6.6
Tox (pCC50) (mock-infected MT4 cells; [1]): <4.0

CC(C)CN(CC(O)C(Cc1ccccc1)NC(=O)OC1COC2OCCC12)S(=O)(=O)c1ccc(-c2coc(-c3ccc4c(c3)OCO4)n2)cc1 (stereo not drawn) [Compound 45]
pEC50 (HIV-1 strain LAI): 7.8

CC(C)CN(CC(O)C(Cc1ccccc1)NC(=O)OC1COC2OCCC12)S(=O)(=O)c1ccc(-c2coc(-c3ccc(I)cc3)n2)cc1 (stereo not drawn) [Compound 47]
pEC50 (HIV-1 strain LAI): 7.1

CC(C)Cc1nc(-c2ccc(S(=O)(=O)N(CC(C)C)CC(O)C(Cc3ccccc3)NC(=O)OC3COC4OCCC34)cc2)co1 (stereo not drawn) [Compound 49]
pEC50 (HIV-1 strain LAI): 8.1
WT (pEC50 against wild type HIV-LAI strain) (HIV-1 strain LAI): 8.1
B (FR towards mutant B) (HIV strain B): 21
C (FR towards mutant C) (HIV strain C): 4.4
E (FR towards mutant E) (HIV strain E): 10
Tox (pCC50) (mock-infected MT4 cells): <4.49

CC(C)CN(CC(O)C(Cc1ccccc1)NC(=O)OC1COC2OCCC12)S(=O)(=O)c1ccc(-c2coc(-c3cccs3)n2)cc1 (stereo not drawn) [Compound 50]
pEC50 (HIV-1 strain LAI): 8.0
WT (pEC50 against wild type HIV-LAI strain) (HIV-1 strain LAI): 8.0
B (FR towards mutant B) (HIV strain B): 14
C (FR towards mutant C) (HIV strain C): 4.3
D (FR towards mutant D) (HIV strain D): 13
Tox (pCC50) (mock-infected MT4 cells): <4.49

CC(C)CN(CC(O)C(Cc1ccccc1)NC(=O)OC1COC2OCCC12)S(=O)(=O)c1ccc(-c2coc(-c3ccc(Br)cc3)n2)cc1 (stereo not drawn) [Compound 51]
pEC50 (HIV-1 strain LAI): 7.5
WT (pEC50 against wild type HIV-LAI strain) (HIV-1 strain LAI): 7.5
C (FR towards mutant C) (HIV strain C): 4.8
D (FR towards mutant D) (HIV strain D): 12
E (FR towards mutant E) (HIV strain E): 4.8
Tox (pCC50) (mock-infected MT4 cells; [1]): <4.49

CC(C)CN(CC(O)C(Cc1ccccc1)NC(=O)OC1COC2OCCC12)S(=O)(=O)c1ccc(-c2coc(-c3ccc(C#N)cc3)n2)cc1 (stereo not drawn) [Compound 52]
pEC50 (HIV-1 strain LAI): 8.1
WT (pEC50 against wild type HIV-LAI strain) (HIV-1 strain LAI): 8.1
B (FR towards mutant B) (HIV strain B): 17
C (FR towards mutant C) (HIV strain C): 6.2
D (FR towards mutant D) (HIV strain D): 16
E (FR towards mutant E) (HIV strain E): 11
Tox (pCC50) (mock-infected MT4 cells): <4.49

CC(C)CN(CC(O)C(Cc1ccccc1)NC(=O)OC1COC2OCCC12)S(=O)(=O)c1ccc(-c2cn3ccsc3n2)cc1 (stereo not drawn) [Compound 53]
pEC50 (HIV-1 strain LAI): 7.6

CC(C)CN(C[C@@H](O)[C@H](Cc1ccccc1)NC(=O)O[C@H]1CO[C@H]2OCC[C@H]21)S(=O)(=O)c1ccc(-c2cnccn2)cc1 [Compound 56, [(1S,2R)-2-hydroxy-3-[N-(2-methylpropyl)-N-[4-(pyrazin-2-yl)-phenylsulfonyl]amino]-1-(phenylmethyl)propyl]carbamic acid, [(3R,3aS,6aR)-hexahydrofuro[2,3-b]furan-3-yl]ester]
pEC50 (HIV-1 strain LAI): 8.1

CC(C)CN(CC(O)C(Cc1ccccc1)NC(=O)OC1COC2OCCC12)S(=O)(=O)c1ccc(-c2nc(N)nc(N)n2)cc1 (stereo not drawn) [Compound 58]
pEC50 (HIV-1 strain LAI): 6.0
